Source: PMC7259638, “Characterization of the intestinal absorption of morroniside from Cornus officinalis Sieb. et Zucc via a Caco-2 cell monolayer model” (PLoS ONE, 2020)
Where two headings read alike, the source gives them in different places.

Legend:
[1] = set-up: method as in PMID 17596900, doi:10.1177/1934578X19856526; conditions: rats; oral vs intravenous; cited from earlier work
Caco-2 cells = assay: MTT cytotoxicity assay; type: cell-based, human; conditions: for Survival Rates (%, mean): Caco-2 cells, five replicates
Description: The conditions for Caco-2 cell culture have been described previously. Briefly, Caco-2 cells were cultured in a humidified atmosphere of 5% CO2 and 95% air at 37 °C. The culture medium (DMEM) was supplemented with 10% (v/v) fetal bovine serum, 1% nonessential amino acids, 1% penicillin, and streptomycin. The medium was changed every 2–3 days. When the cell monolayer reached 80–90% confluence, the cells were detached with a solution of trypsin (0.5 mg/mL) and EDTA (0.2 mg/mL) and reseeded at a density of 5×10^4 cells/cm^2.
For the cytotoxicity assay, the cells were incubated in 96-well plates for 24 h. Morroniside dissolved in methanol was diluted with DMEM to terminal concentrations that ranged from 0.1 μM to 200 μM, or CO at 0.63 mg/mL (containing 25 μM morroniside). A negative control group was obtained by the addition of DMEM with methanol at 0.5%(v/v). The cell culture medium treated group was treated only with DMEM. MTT solution was prepared to 1 mg/mL in phosphate-buffered saline and filtered through a 0.2 μm filter. Then, 20 μL of MTT was added into each well. Cells were incubated for 4 h at 37 °C with 5% CO2, 95% air and 100% humidity. After 4 h, the MTT solution was removed and replaced with 150 μL of DMSO. The plate was further incubated for 5 min at room temperature (20 °C), and the optical density of the wells was measured using a plate reader at a wavelength of 490 nm.

[2] = Effects of influx/efflux transporter inhibitors and CO on morroniside transport in Caco-2 cell monolayers; type: in vitro ADME, human; conditions: human; for efflux ratio at 180 min, 25 μM: read-out: Efflux ratio P
Description: (§1) An initial stock solution of morroniside in methanol was prepared. The stock solution was then diluted with HBSS (pH = 7.4) and the final concentration of methanol in HBSS remained at 0.5%. […] Caco-2 cells were seeded at a density of 5 × 10^4 cells/cm^2 in a 12-well plate. The transepithelial electrical resistance (TEER) value was measured with a Millipore ERS voltameter (Burlington, MA, USA) in order to evaluate and determine monolayer integrity. The monolayers were ready for experiments 19 to 22 days after seeding.
(§2) During incubation, the culture medium was refreshed every other day. The culture medium was discarded, and 500 μL of HBSS was added to each well and incubated for 20 min at 37 °C. Afterward, each well was rinsed two times with HBSS at 37 °C. Three concentrations of morroniside (5, 25 and 100 μM) were added to either the apical (AP, 0.5 mL) or basolateral side (BL, 1.5 mL), wheras the receiving chamber contained the corresponding volume of blank HBSS medium (pH = 7.4). Incubation was performed at 37 °C for 180 min, with shaking at 50 rpm. To assess drug transport from the AP to BL side, after incubation for 5, 15, 30, 45, 60, 90, 120 or 180 min, 50 μL of the solution from the BL or AP side was collected, and replaced with an equal volume of HBSS. To study the effect of pH on morroniside (5, 25 and 100 μM) transport, the experiments were performed in HBSS, which was adjusted to pH 6.0 or pH 7.4 on the AP side depending on the experiment, and to pH 7.4 on the BL side at 37 °C.
(§3) Efflux and influx transporters were investigated for their effects on the transport flux of morroniside. Several ATP-binding cassette transporter inhibitors, including one p-glycoprotein (P-gp) inhibitor (100μM verapamil); one multidrug resistance- related protein (MRP) inhibitor (100 μM, MK571), one multidrug resistance- related protein 3 (MRP3, the main BL MRP) inhibitor ([…]) and one multidrug resistance- related protein 2 (MRP2, the main AP MRP) inhibitor (200μM indomethacin); and one breast cancer resistance protein (BCRP) inhibitor (25μM apigenin) were used to determine the transporters involved in the efflux transport of morroniside. The inhibition of the influx transport of morroniside transport across the Caco-2 cell monolayer was investigated by the addition of 50 μM sodium vanadate and cimetidine to evaluate the selectivity of Na/K-ATPase. The pH and temperature conditions of this assay were 7.4 and 37 °C, respectively.
(§4) UPLC-MS/MS data acquisition was performed using Analyst 1.5.2 and MultiQuant 2.1.1 software (Applied Biosystems). All data are shown as the mean ± standard deviation, n = 3. The data were analyzed using SPSS 20.0. In the Caco-2 cell model, the rate of transport was obtained from the amount transported versus the time curve using linear regression. The permeability coefficient of each compound was calculated using the following equation: Papp = (dQ/dt)/(A·C0).
(§5) where, dQ/dt is the rate of drug transport, C0 is the initial concentration of the compound in the donor chamber and A represents the surface area of the cell monolayer. The efflux ratio P was determined by calculating the ratio of Papp in the secretory (BA) direction divided by that in the absorptive (AB) direction, according to the following equation: P=PappBA/PappAB

BCRP = assay: as above; type: in vitro ADME, human; conditions: human, 25 μM morroniside
Description: as §1, §2, §3, §4, §5

[3] = Transport of morroniside across Caco-2 cell monolayers (bidirectional, concentration and pH); type: in vitro ADME, human; conditions: human
Description: as §1, §2, §4, §5

Caco-2 cell monolayers = assay: as above; type: in vitro ADME, human; conditions: for PappAB AP-BL: AP to BL; for PappAB AP-BL / PappAB BL-AP: pH 7.4; for PappAB AP-BL / PappAB BL-AP / PappAB: 37 °C, n = 3; for PappAB BL-AP: BL to AP
Description: as §1, §2, §4, §5

efflux ratio at 180 min, 25 μM ([2]; Caco-2, pH 7.4, 25 μM morroniside, Control (no inhibitor)): 1.61
efflux ratio at 180 min ([2]; Caco-2, pH 7.4, Control (no inhibitor), influx transporter experiment, read-out: P (efflux ratio PappBA/PappAB)): 1.6
efflux ratio at 180 min, 25 μM ([2]; Caco-2, pH 7.4, morroniside given as CO 0.63 mg/mL (containing 25 μM morroniside)): 0.49
Papp B→A at 180 min ([2]; Caco-2, Control (no inhibitor), influx transporter experiment, pH 7.4, 37 °C): 3.06 ± 0.6 ×10⁻⁶ cm/s
efflux ratio at 180 min, 25 μM (BCRP; Caco-2, pH 7.4, with apigenin 25 μM, with apigenin 25 μM (BCRP inhibitor), read-out: Efflux ratio P): 0.45
Papp B→A at 180 min, 25 μM (BCRP; Caco-2, pH 7.4, BL to AP, with apigenin 25 μM, read-out: PappBA (mean)): 2.78 ×10⁻⁶ cm/s
Papp A→B at 180 min, 5 μM ([3]; Caco-2, AP side pH 6.0, BL side pH 7.4, 5μM morroniside, 37 °C, n = 3, read-out: PappAB): 0.55 ± 0.07 ×10⁻⁶ cm/s
Papp A→B at 180 min, 100 μM ([3]; Caco-2, AP side pH 6.0, BL side pH 7.4, 100μM morroniside, 37 °C, n = 3, read-out: PappAB): 0.62 ± 0.1 ×10⁻⁶ cm/s
Papp A→B at 180 min, 5 μM ([3]; Caco-2, pH 7.4, 5 μM morroniside, AP to BL, over 3 h, read-out: Papp (AP to BL)): 2.66 ×10⁻⁶ cm/s
Papp A→B at 180 min, 25 μM ([3]; Caco-2, pH 7.4, 25 μM morroniside, AP to BL, pH 7.4, 37 °C, n = 3, read-out: PappAB AP-BL): 1.83 ± 0.65 ×10⁻⁶ cm/s
Papp A→B at 180 min, 100 μM ([3]; Caco-2, pH 7.4, 100 μM morroniside, AP to BL, over 3 h, read-out: Papp (AP to BL)): 1.59 ×10⁻⁶ cm/s
Papp A→B at 180 min, 5 μM ([3]; Caco-2, pH 7.4, AP side pH 7.4, 5μM morroniside, 37 °C, n = 3, read-out: PappAB): 1.88 ± 0.49 ×10⁻⁶ cm/s
Papp A→B at 180 min, 25 μM ([3]; Caco-2, pH 7.4, AP side pH 7.4, 25μM morroniside, 37 °C, n = 3, read-out: PappAB): 1.92 ± 0.52 ×10⁻⁶ cm/s
Papp A→B at 180 min ([3]; Caco-2, pH 7.4, range over 5, 25 and 100 μM, AP-to-BL, read-out: apparent permeability coefficient (Papp) AP-to-BL): 1.59 to 2.66 ×10⁻⁶ cm/s
Papp B→A at 180 min, 5 μM ([3]; Caco-2, pH 7.4, 5 μM morroniside, BL to AP, over 3 h): 4.1 ×10⁻⁶ cm/s
Papp B→A at 180 min, 100 μM ([3]; Caco-2, pH 7.4, 100 μM morroniside, BL to AP, over 3 h): 2.67 ×10⁻⁶ cm/s
Papp B→A at 180 min ([3]; Caco-2, pH 7.4, range over 5, 25 and 100 μM, BL-to-AP, read-out: apparent permeability coefficient (Papp) BL-to-AP): 2.67 to 4.1 ×10⁻⁶ cm/s
Papp B→A at 180 min, 25 μM ([3]; Caco-2, 25 μM morroniside, BL to AP, pH 7.4, 37 °C, n = 3, read-out: PappAB BL-AP): 2.92 ± 0.63 ×10⁻⁶ cm/s
PappAB AP-BL (Caco-2 cell monolayers; 5 μM morroniside): 2.66±0.60 ×10^-6cm/s
PappAB BL-AP (Caco-2 cell monolayers; 5 μM morroniside): 4.10±0.86 ×10^-6cm/s
PappAB AP-BL (Caco-2 cell monolayers; 100 μM morroniside): 1.59±0.41 ×10^-6cm/s
PappAB BL-AP (Caco-2 cell monolayers; 100 μM morroniside): 2.67±0.48 ×10^-6cm/s
PappAB (Caco-2 cell monolayers; AP side pH 6.0, BL side pH 7.4, 25μM morroniside): 0.61±0.15 ×10^-6cm/s
PappAB (Caco-2 cell monolayers; AP side pH 7.4, 100μM morroniside): 1.86±0.33 ×10^-6cm/s
intestinal absorption assessed from Papp level (Caco-2 cell monolayers; Papp values at the level of 10^−6, Caco-2 transwell): poor intestinal absorption
PappAB at pH 7.4 compared with pH 6.0 (Caco-2 cell monolayers; three concentrations (5, 25, 100 μM), p<0.05): significantly higher
Compound: COC(=O)C1=CO[C@@H](O[C@@H]2O[C@H](CO)[C@@H](O)[C@H](O)[C@H]2O)[C@@H]2[C@H](C)O[C@@H](O)C[C@H]12 [morroniside, Morroniside]
absolute oral bioavailability [1]: 3.6–7.0%
Survival Rates (%, mean) (Caco-2 cells; 0.1 μM): 105.12%
Survival Rates (%, mean) (Caco-2 cells; 1 μM): 108.33%
Survival Rates (%, mean) (Caco-2 cells; 5 μM): 101.62%
Survival Rates (%, mean) (Caco-2 cells; 10 μM): 102.41%
Survival Rates (%, mean) (Caco-2 cells; 50 μM): 95.21%
Survival Rates (%, mean) (Caco-2 cells; 100 μM): 91.77%
Survival Rates (%, mean) (Caco-2 cells; 200 μM): 90.72%
reduction of viability of Caco-2 cells (Caco-2 cells; highest concentration (200 μM)): 8%
cytotoxicity toward Caco-2 cells (in words) (Caco-2 cells; morroniside 0.1 to 200 μM): nontoxic
